# Measured values: article PMC12480555 (Scientific Reports, 2025)
# Key:
# [1] = MTT cytotoxicity assay; format: cell-based; details: human, HFF cells
# [2] = Kidney histology in colon cancer model; details: kidney tissue, day 21
# [3] = Blood parameters in colon cancer model
# [4] = test system: CT26-induced tumors; assay: Tumor histology; details: tumor tissue, day 21
# [5] = test system: CT26-induced tumors; assay: Colon cancer model, tumor weight and size after 21 days; details: intravenous every three days
smiles,measurement,setting,value
"O=c1[nH]cc(F)c(=O)[nH]1 [Free 5FU, 5-Fluorouracil]","viability at 24 h, 0.2 mg/mL",[1],99.5%
same,"viability at 24 h, 0.5 mg/mL",[1],87.9%
same,"viability at 24 h, 1 mg/mL",[1],85.9%
same,"viability at 24 h, 1.5 mg/mL",[1],75.9%
same,"viability at 24 h, 2 mg/mL",[1],75.1%
same,"viability at 48 h, 0.2 mg/mL",[1],104%
same,"viability at 48 h, 0.5 mg/mL",[1],94.1%
same,"viability at 48 h, 1 mg/mL",[1],79.4%
same,"viability at 48 h, 1.5 mg/mL",[1],74.7%
same,"viability at 48 h, 2 mg/mL",[1],65.1%
same,renal complications (kidney histology),[2],Most renal complications occurred in this group
same,Red Blood Cell Count ± SD,[3]; Day 21,4.2 ± 0.3 ×10⁶ cells/µL
same,White Blood Cell Count ± SD,[3]; Day 21,10.0 ± 1.5 ×10³ cells/µL
same,Hemoglobin Level ± SD,"[3]; Day 21, listed as 5-FU",9.0 ± 0.8 g/dL
same,Hemoglobin Level ± SD,"[3]; Day 21, listed as free 5-FU",9.0 g/dL
same,Hemoglobin Level ± SD,[3]; Treatment start,12.8 ± 1.2 g/dL
same,Red Blood Cell Count ± SD,[3]; Treatment start,5.6 ± 0.5 ×10⁶ cells/µL
same,White Blood Cell Count ± SD,[3]; Treatment start,8.3 ± 1.1 ×10³ cells/µL
same,Number of Apoptotic Cells (per field of view) ± Standard Deviation,[4],8.0 ± 1.0 per field of view
same,Other Histopathology Changes,[4],Mild necrotic changes and inflammation
same,Percentage of Necrosis ± Standard Deviation,[4],18.0 ± 4.0%
same,Tumor Differentiation Grade (1 to 3) ± Standard Deviation,[4],2.0 ± 0.3
same,Mean tumor size ± standard deviation,[5],11.0 ± 2.0 mm
same,Mean tumor weight ± standard deviation,[5],0.98 ± 0.36 g
